The subject of one assay is B. fragilis. As to the kind of experiment: MIC microdilution, gram negative. It is filed as cell-based, Bacteroides fraglis. Particulars: for MIC: Bacteroides fragilis, Table 3, Gram Negative; for MIC B. fragilis: Table 3 printed a second time, Gram Negative. As to the method: (§1) The MIC's for the compounds were determined by a modified microdilution tube dilution method described in “Methods for Dilution Antimicrobial Susceptibility Tests for Bacteria that Grow Aerobically” (National Committee for Clinical Laboratory Standards Approved Standards, 1997, NCCLS document M7-A4). In general the modifications were made because of the unique growth requirements for the fastidious oral organisms and for those bacteria that require anaerobic conditions. Reference is also made to “Methods for Antimicrobial Susceptibility of Anaerobic Bacteria” (National Committee for Clinical Laboratory Standards Approved Standards, 1997, NCCLS document M11-A4). Briefly, the methods were as follows. Cultures were grown for 18-24hrs (aerobic bacteria) or 48-72 hrs (anaerobic bacteria) in the appropriate medium. For aerobic bacteria full strength brain heart infusion medium (BHI, Difco) was used. For anaerobic bacteria, half strength BHI (18.5 g/L) was supplemented by adding yeast extract (10 g/L), hemin (0.29 mL of a stock solution containing 0.1 g/200 mL dH2O) and menadione (15 mL of a stock solution containing 0.15 mL in 30 mL 95% EtOH) was used. Initial cultures were diluted to approximately 1×10^8 CFU/mL for use as an inoculum. Each assay received 10 μL of the inoculum. The drugs were prepared from a stock solution contained in dimethyl sulfoxide (DMSO) and diluted into the culture medium. Final concentrations of the drugs ranged from 50 to 0.05 μg/assay. The tests were run in duplicate and were incubated appropriately with regard to oxygen requirements for 24 to 48 hrs as required. Anaerobic incubation was an atmosphere of 5% CO2, 10% H2, with the balance N2. The lowest concentration of an antimicrobial agent at which no visible growth is noted was referred to as the MIC. […] The method used was the same as described in Example 1.
(In general: Dilution methods test growth across graded concentrations, often in twofold steps.)

Another assay deals with Aa Y4. As to the kind of experiment: MIC microdilution, gram negative. The class given is cell-based, Actinobacillus actinomycetemcomitans. Particulars: for MIC: Aggregatibacter actinomycetemcomitans, Y4, Table 3, Gram Negative; for MIC Aa Y4: Table 3 printed a second time, Gram Negative. As to the method:
as §1

The subject of another assay is Str. pn. As to the kind of experiment: Mean Streptococcus MIC. It is filed as cell-based. Particulars: Streptococcus; Table 5, mean. As to the method:
(§2) The MIC's for the compounds were determined by a modified microdilution tube dilution method described in “Methods for Dilution Antimicrobial Susceptibility Tests for Bacteria that Grow Aerobically” (National Committee for Clinical Laboratory Standards Approved Standards, 1997, NCCLS document M7-A4). In general the modifications were made because of the unique growth requirements for the fastidious oral organisms and for those bacteria that require anaerobic conditions. Reference is also made to “Methods for Antimicrobial Susceptibility of Anaerobic Bacteria” (National Committee for Clinical Laboratory Standards Approved Standards, 1997, NCCLS document M11-A4).
(§3) Briefly, the methods were as follows. Cultures were grown for 18-24hrs (aerobic bacteria) or 48-72 hrs (anaerobic bacteria) in the appropriate medium. For aerobic bacteria full strength brain heart infusion medium (BHI, Difco) was used. For anaerobic bacteria, half strength BHI (18.5 g/L) was supplemented by adding yeast extract (10 g/L), hemin (0.29 mL of a stock solution containing 0.1 g/200 mL dH2O) and menadione (15 mL of a stock solution containing 0.15 mL in 30 mL 95% EtOH) was used. Initial cultures were diluted to approximately 1×10^8 CFU/mL for use as an inoculum. Each assay received 10 μL of the inoculum. The drugs were prepared from a stock solution contained in dimethyl sulfoxide (DMSO) and diluted into the culture medium. Final concentrations of the drugs ranged from 50 to 0.05 μg/assay. The tests were run in duplicate and were incubated appropriately with regard to oxygen requirements for 24 to 48 hrs as required. Anaerobic incubation was an atmosphere of 5% CO2, 10% H2, with the balance N2. The lowest concentration of an antimicrobial agent at which no visible growth is noted was referred to as the MIC.
(§4) This embodiment illustrates the efficacy of the compounds of the present invention against Streptococcus strains. One of the strains, Str.pn.R was obtained from the Children's Hospital in Buffalo (strain 00-041-0614). […] The sensitivity of this strain was tested against several known antibiotics.

The test system of another assay is Str. pyo. As to the kind of experiment: Mean Streptococcus MIC. The class given is cell-based. Particulars: Streptococcus; Table 5, mean. As to the method: as §2, §3, §4
Another assay concerns Str. pn. R. As to the kind of experiment: Mean Streptococcus MIC. The class given is cell-based. The conditions noted are these: Streptococcus; Table 5, mean; strain resistant to penicillin and erythromycin. As to the method: as §2, §3, §4
For another assay, the system named is P. ging 381. In words: MIC microdilution, gram negative. It is filed as cell-based, Porphyromonas gingivalis. The conditions noted are these: for MIC: Porphyromonas gingivalis, 381, Table 3, Gram Negative; for MIC P. ging 381: Table 3 printed a second time, Gram Negative. In a few lines: (§5)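 Modified NCCLS broth microdilution; anaerobes grown 48-72 hrs in half-strength BHI with yeast extract, hemin and menadione, aerobes in full-strength BHI, inoculum ~1×10^8 CFU/mL (10 μL/assay). Drugs from DMSO stock, final 50 to 0.05 μg/assay, duplicate, 24 to 48 hrs (anaerobic: 5% CO2, 10% H2, N2); MIC = lowest concentration without visible growth.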

A further assay relates to Pg 53977. In words: MIC microdilution, gram negative. It is filed as cell-based, Porphyromonas gingivalis. Particulars: for MIC: Porphyromonas gingivalis, 53977, Table 3, Gram Negative; for MIC Pg 53977: Table 3 printed a second time, Gram Negative. The essentials:
as §5

The next assay concerns Fuso. 25586. In words: MIC microdilution, gram negative. The class given is cell-based, Fusobacterium nucleatum. Particulars: for MIC: Fusobacterium nucleatum, Table 3, Gram Negative; for MIC Fuso. 25586: Table 3 printed a second time, Gram Negative. As to the method: as §1
A further assay deals with P. acnes 11828. As to the kind of experiment: MIC microdilution, gram positive. It is filed as cell-based, Propionibacterium acnes. The conditions noted are these: Cutibacterium acnes, 11828; Table 1, Gram Positive. The essentials: (§6)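 Anaerobic strains required supplemented half-strength BHI and incubation in 5% CO2, 10% H2, balance N2; aerobic strains used full-strength BHI. Inoculum approx. 1×10^8 CFU/mL; compounds from DMSO, 50 to 0.05 μg/assay; visual MIC.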

A further assay concerns P. acnes 6922. In words: MIC microdilution, gram positive. It is filed as cell-based, Propionibacterium acnes. Particulars: Cutibacterium acnes, 6922; Table 1, Gram Positive. The essentials: as §6

Molecules are shown by their SMILES. Converted amounts (≈) assume the structure as drawn. Where only a bound is given, the exact number is not on record here.

Consider five compounds from patent US6407288B1, “Naphthylsalicylanilides as antimicrobial and antiinflammatory agents” (The Research Foundation of State University of New York, priority 2000, dated 2002).

`N#Cc1cccc(NC(=O)c2cc(C(=O)c3cccc4ccccc34)ccc2O)c1` [NA1mC]: the MIC in the assay with B. fragilis was over 50 µg/mL; in the assay with Aa Y4 it was 6.3 µg/mL (≈ 16.1 µM); against Str. pn, 1.1 µg/mL (≈ 2.8 µM); with Str. pyo it was 16.7 µg/mL (≈ 42.5 µM); against Str. pn. R it was 12.5 µg/mL (≈ 31.9 µM); in the assay on P. ging 381 it was 0.4 µg/mL (≈ 1.02 µM). Also, the MIC in the assay with Pg 53977 was 0.8 µg/mL (≈ 2.04 µM); in the assay on Fuso. 25586, 2.5 µg/mL (≈ 6.37 µM); against P. acnes 11828, 6.3 µg/mL (≈ 16.1 µM); with P. acnes 6922, 6.3 µg/mL (≈ 16.1 µM). Besides, the “MIC B. fragilis” value against B. fragilis is on record as “NE (NE indicates that the drug was not effective at a concentration >50 micrograms/ml)”. Besides, the “MIC Aa Y4” value against Aa Y4 worked out at 6.3 micrograms/ml. Further, the “MIC P. ging 381” value in the assay with P. ging 381 came out at 0.4 micrograms/ml. Further, the “MIC Pg 53977” value against Pg 53977 is on record as 0.8 micrograms/ml. Moreover, the “MIC Fuso. 25586” value with Fuso. 25586 was determined as 2.5 micrograms/ml.

In the case of `O=C(c1ccc(-c2ccccc2)cc1)c1ccc(O)c(C(=O)Nc2cccc(C(F)(F)F)c2)c1` [BPAmF, reference compound], the MIC against B. fragilis was 50 µg/mL (≈ 108 µM); against Aa Y4, over 50 µg/mL; against Str. pn, 0.84 µg/mL (≈ 1.82 µM); in the assay on Str. pn. R it was over 50 µg/mL; against P. ging 381, under 0.4 µg/mL; in the assay with Pg 53977, under 0.4 µg/mL. In addition, the MIC in the assay on Fuso. 25586 is over 50 µg/mL; with P. acnes 11828, 0.4 µg/mL (≈ 0.867 µM); with P. acnes 6922, 0.2 µg/mL (≈ 0.433 µM). The “MIC B. fragilis” value in the assay on B. fragilis amounted to 50 micrograms/ml. Further, in the assay with Aa Y4, the “MIC Aa Y4” value is “NE (NE indicates that the drug was not effective at a concentration >50 micrograms/ml)”. The “MIC P. ging 381” value in the assay with P. ging 381 was under 0.4 micrograms/ml. Further, the “MIC Pg 53977” value against Pg 53977 is given as under 0.4 micrograms/ml. In the assay with Fuso. 25586, the “MIC Fuso. 25586” value is on record as “NE (NE indicates that the drug was not effective at a concentration >50 micrograms/ml)”.

Take `O=C(Nc1cccc(C(F)(F)F)c1)c1cc(C(=O)c2cccc3ccccc23)ccc1O` [NA1mF]: the MIC was 3.1 µg/mL (≈ 7.12 µM) against B. fragilis; 3.1 µg/mL (≈ 7.12 µM) against Aa Y4; 0.45 µg/mL (≈ 1.03 µM) in the assay with Str. pn; 1 µg/mL (≈ 2.3 µM) against Str. pyo; 0.78 µg/mL (≈ 1.79 µM) in the assay with Str. pn. R; under 0.1 µg/mL in the assay with P. ging 381. The MIC against Pg 53977 was under 0.1 µg/mL; against Fuso. 25586, 3.1 µg/mL (≈ 7.12 µM); with P. acnes 11828, 0.4 µg/mL (≈ 0.919 µM); in the assay with P. acnes 6922 it was 0.2 µg/mL (≈ 0.459 µM). Also, the “MIC B. fragilis” value against B. fragilis was found to be 3.1 micrograms/ml. For the same compound, the “MIC Aa Y4” value with Aa Y4 is on record as 3.1 micrograms/ml. The “MIC P. ging 381” value in the assay with P. ging 381 is reported as under 0.1 micrograms/ml. The “MIC Pg 53977” value against Pg 53977 is listed as under 0.1 micrograms/ml. The “MIC Fuso. 25586” value against Fuso. 25586 was found to be 3.1 micrograms/ml.

With `N#Cc1cccc(NC(=O)c2cc(C(=O)c3ccc(-c4ccccc4)cc3)ccc2O)c1` [BPAmC, reference compound], the MIC was 50 µg/mL (≈ 119 µM) with B. fragilis; over 50 µg/mL against Aa Y4; 0.58 µg/mL (≈ 1.39 µM) against Str. pn; over 50 µg/mL against Str. pn. R; under 0.4 µg/mL against P. ging 381; under 0.4 µg/mL against Pg 53977. For the same compound, the results for the MIC against Fuso. 25586, in the assay on P. acnes 11828 and against P. acnes 6922 were over 50 µg/mL, 12.5 µg/mL (≈ 29.9 µM) and 0.2 µg/mL (≈ 0.478 µM), respectively. Moreover, in the assay on B. fragilis, the “MIC B. fragilis” value came out at 50 micrograms/ml. In addition, the “MIC Aa Y4” value against Aa Y4 is recorded as “NE (NE indicates that the drug was not effective at a concentration >50 micrograms/ml)”. Moreover, the “MIC P. ging 381” value in the assay on P. ging 381 is listed as under 0.4 micrograms/ml. In the assay on Pg 53977, the “MIC Pg 53977” value is given as under 0.4 micrograms/ml. In addition, the “MIC Fuso. 25586” value against Fuso. 25586 is reported as “NE (NE indicates that the drug was not effective at a concentration >50 micrograms/ml)”.

`CCCCc1ccc(C(=O)c2ccc(O)c(C(=O)Nc3cccc(C(F)(F)F)c3)c2)cc1` [BBAmF, reference compound]: the MIC against B. fragilis was over 50 µg/mL; with Aa Y4, over 50 µg/mL; against Str. pn, 0.45 µg/mL (≈ 1.02 µM); in the assay with Str. pn. R it was over 50 µg/mL; against P. ging 381, under 0.4 µg/mL; against Pg 53977, under 0.4 µg/mL. The MIC against Fuso. 25586 was over 50 µg/mL; against P. acnes 11828 it was 0.8 µg/mL (≈ 1.81 µM); with P. acnes 6922, 0.2 µg/mL (≈ 0.453 µM). Moreover, in the assay on B. fragilis, the “MIC B. fragilis” value was “NE (NE indicates that the drug was not effective at a concentration >50 micrograms/ml)”. Also, the “MIC Aa Y4” value in the assay with Aa Y4 is “NE (NE indicates that the drug was not effective at a concentration >50 micrograms/ml)”. Further, in the assay on P. ging 381, the “MIC P. ging 381” value is on record as under 0.4 micrograms/ml. Moreover, the “MIC Pg 53977” value against Pg 53977 is on record as under 0.4 micrograms/ml. Further, in the assay with Fuso. 25586, the “MIC Fuso. 25586” value is given as “NE (NE indicates that the drug was not effective at a concentration >50 micrograms/ml)”.
